Assay results: patent US20180371408A1, “CELL CULTURES AND METHODS OF USE” (priority 2017, published 2018)
Read-outs that look alike come from different tables or passages of the source.

Tests used:
[1] = system: Spermatogonial cells (C18-4); assay: cells; format: cell-based, mouse; details: Mus musculus, read-out: IC50
[2] = system: testicular cell co-culture (C18-4, TM4, TM3); assay: Machine learning-based HCA phenotype classification (multinucleated cells, M phase, stretching F-actin filaments); format: cell-based, mouse; details: for induction of multinucleated cells, in words: FIG. 12F
Description: Our processing pipeline included cell segmentation, localization, and measurements of multiple features of single cells. This pipeline identified the nuclei from the Hoechst 33342 (nuclei) channel and used the nuclei as primary objects to assist in the identification of secondary objects, which included F-actin and γ-H2AX in each cell. The pipeline (which is freely available from the authors upon request) has the ability to measure over 200 cellular features, including size, shape, intensity, and texture of nuclei, intensity, and texture of F-actin, and intensity of γ-H2AX in a single cell. In order to measure the nuclear area and shape of a cell, multiple features such as object area, perimeter eccentricity and orientation had to be extracted. Object intensity was determined through measurements of various intensity statistics including the integrated intensity, the mean intensity, and the maximal or minimal pixel intensities within an object or on the object's edge. To quantify the object's texture, Haralick texture features derived from the co-occurrence matrix were employed to calculate the occurrence of pairs of pixels with specific intensity values and spatial relationships in an image. The texture features were described by homogeneity, local variation, randomness, and the contrast of object texture. Supervised ML was performed with the CellProfiler Analyst via the “RandomForest Classifier” algorithm (Broad Institute, MA) (Jones et al., 2008). RandomForest is an ensemble learning method that constructs decision trees with an averaged prediction, and is robust in high-dimensional data analysis with low bias (Breiman, 2001).
In the current study, we quantified three key phenotypic changes in the co-culture model. The first change we noticed was the induction of multinucleated cells, a unique toxicity marker for BPAF observed in spermatogonia cells in the previous study, was once again examined in the current co-culture testicular cell model. As depicted in FIG. 10, the multinucleated phenotype was identified as a cell with giant nuclei and irregular nuclear contour. […] Mitotic phenotypes were identified as cells with small condensed nuclei with a round shape (prometaphase), condensed nuclei with shallow concavities (metaphase), and nuclei with separated and aligned chromosomes (anaphase, telophase, and late telophase). […] Cells with phenotypic 3D structure have F-actin bundles stretching across their cytoplasm. During the training process, a small set of unclassified objects were manually sorted into two classes, including non-multinucleated cells or multinucleated cells, cells not in M phases or cells in M phase, and cells with or without stretching F-actin filaments. The maximum number of features was set as 20 in order to generate rules for phenotypic classification, and those features were automatically selected by the RandomForest classifier to capture the subtle differences between the classes. The phenotype classification was based on the images acquired by Arrayscan™ VTI HCS reader, and multiple features were measured by CellProfiler. The input features included values describing nuclei size and shape, DNA intensity and texture, F-actin intensity and texture, and γ-H2AX intensity at the single-cell level. For multinucleated cells and M phase cells, the training set was established by visual examination of the images in the nuclei channel. For a cell with stretching F-actin filaments, initial manual classification during the training process was based on multi-channel images, including nuclei, F-actin and γ-H2AX. The results were presented in terms of the number of cells in predefined classes and total cell number per image field. The field-based data were averaged for the well-based condition.
(§1) Data were presented as mean±standard deviation (SD).

Sertoli cells (TM4) = assay: cells; format: cell-based, mouse; details: Mus musculus, read-out: IC50
[3] = system: testicular cell co-culture (C18-4, TM4, TM3); assay: BrdU incorporation (DNA synthesis) and cell cycle HCA; format: cell-based, mouse
Description: BrdU incorporation, cell fixation, BrdU, and DNA staining followed the previously published protocol (Liang, et al., 2017b). the determination of DNA damage responses and cytoskeleton analysis was conducted after cell fixation. The cells were then permeabilized by a 0.1% Triton X-100 in PBS, and then incubated with a mouse-anti phosphor-histone H2AX (Ser139) (γ-H2AX) overnight at 4° C. […] Finally, prior to acquiring the images, the cells were stained with Alexa Fluor 488 Phallodin for 30 minutes to stain the F-actin (Liang, et al., 2017)
Multi-Channel images were analyzed using HCS Studio™2.0 TargetActivation BioApplication. Multiple parameters of nuclei were characterized in HCA, including nuclei number, nuclear area, shape, and total DNA intensity. Nuclear shape measurements included P2A, a ratio of the nuclear perimeter squared to 4it*nucleus area (perimeter^2/4π*enuclear area) to evaluate nuclear smoothness, and LWR, a ratio of the nuclear length to width, to measure nuclear roundness. For a fairly round and smooth object, the values for P2A and LWR are around 1.0. Total intensity was defined as total pixel intensity within a cell in the respective channel. The total intensities of BrdU, γ-H2AX, and F-actin of the individual cells were also quantified. With forty-nine 20× images acquired from each well, at least 1,000 cells were analyzed per well, and single-cell based data were extracted for further analysis. The experiments were performed with at least four biological replicates and repeated twice.
as §1

[4] = system: pregnancies and sexual development; details: rats, doses of ˜80 and ˜280 mg/kg; cited from earlier work
HepG2 cell line = details: cited from earlier work
reproductive system = details: based on ToxCast database and literature search; cited from earlier work
[5] = system: human breast cancer cells; details: cited from earlier work

| Structure (SMILES) | IC50 ([1]; 24 h) [µM] | IC50 ([1]; 48 h) [µM] | induction of multinucleated cells, in words [2] | IC50 (Sertoli cells (TM4); 24 h) [µM] | IC50 (Sertoli cells (TM4); 48 h) [µM] | doses with significant induction of cells in M phase ([2]; 48 and 72 h) [µM] | effect on pregnancies and sexual development [4] | further results |
| --- | --- | --- | --- | --- | --- | --- | --- | --- |
| CC(C)(c1cc(Br)c(O)c(Br)c1)c1cc(Br)c(O)c(Br)c1 [TBBPA, 2,2′,6,6′-Tetrabromo-4,4′-isopropylidenediphenol] | 74.9 | 55 | did not induce multinucleation | 60 | 38 |  |  | doses with significant induction of cells in M phase ([2]; 24, 48, and 72 h): 15 µM; doses with significant decrease in BrdU-positive cells ([3]; 48 and 72 h): 15 µM |
| O=S(=O)(c1ccc(O)cc1)c1ccc(O)cc1 [BPS, 4,4′-Sulfonyldiphenol] | 505 | 357 | did not induce multinucleation | 211 | 74.3 | 100 |  | doses with significant decrease of cells with stretching F-actin filaments (phenotypic 3D structure) ([2]; 72 h): 100 µM; doses with significant decrease in BrdU-positive cells ([3]; 24 h): 100 µM |
| Oc1ccc(C(c2ccc(O)cc2)(C(F)(F)F)C(F)(F)F)cc1 [BPAF, 4,4′-(Hexafluoroisopropylidene)diphenol] | 70 | 58.5 |  | 55.4 | 22.3 |  | impaired pregnancies and sexual development | Spearman correlation of total F-actin and γ-H2AX intensity, multinucleated versus non-multinucleated cells ([2]; 5 μM for 24, 48, and 72 h): higher resulting positive correlation; dose significantly inducing multinucleated cells ([2]; 24, 48, and 72 h): 5 µM; doses with significant induction of cells in M phase ([2]; 24 h): 10 µM; HCA-based cell cycle analysis, in words [3]: significantly induced G2/M phase arrest; dose inducing BrdU-positive cells ([3]; 72 h): 10 µM; doses with significant decrease in BrdU-positive cells ([3]; 72 h): 15 µM |
| CC(C)(c1ccc(O)cc1)c1ccc(O)cc1 [BPA, 4,4′-(propane-2,2-diyl) diphenol] | 190 | 184 | did not induce multinucleation | 89 | 79 | 100 | did not alter these reproductive endpoints | dose not able to induce γ-H2AX (HepG2 cell line): > 100 µM; In vivo Reproductive Toxicity (reproductive system): +; doses with significant decrease of cells with stretching F-actin filaments (phenotypic 3D structure) ([2]; 24 h): 100 µM; dose able to induce γ-H2AX [5]: 10 nM; doses with significant decrease in BrdU-positive cells ([3]; 24 and 48 h): 100 µM |
